The values that follow come from patent US3982931A, “N,N-di-sec.butyl-benzamide herbicides” (priority 1967, dated 1976).

SMILES strings stand for the structures.

The subject of series [1] is amaranthus retroflexus L. The experiment in a line: herbicidal activity, soil treatment one day after sowing. The format is in vivo.
The next series concerns oryza sativa L. (rice). The experiment in a line: activity on agrarian species, soil treatment one day after sowing. The format is in vivo. In a few lines:
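Activity scored 0 (no difference from control) to 4 (no germination or total containment of emerging plants), intermediates given both classes. Product spread on soil one day after sowing rice, at rates of 1, 3, 6, 8, 10, 12 and 14 kg/ha.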

Another series concerns useful plants. Nature of the series: phytotoxic action on useful plants (general statements). The class given is in vivo, useful gramineae. As to conditions: in words. From the text:
(§1) It is understood that all the data given herein shall have no limiting character on the object of this invention.

In a further series the test system is chenopodium album L. Nature of the series: herbicidal activity, soil treatment one day after sowing. The format is in vivo.
In a further series the test system is artemisia vulgaris L. The description is as above. The format is in vivo.
Another series concerns setaria glauca L. Described as above. The format is in vivo.
The test system of another series is infesting gramineae. The experiment in a line: herbicidal action on infesting plants (general statements). The class given is in vivo. As to conditions: in words.
Text: as §1

Another series deals with vicia sativa L. The experiment in a line: herbicidal activity, soil treatment one day after sowing. The class given is in vivo. The gist of the method: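 Pre-emergence soil treatment one day after sowing; activity scored visually on a […] scale against untreated control, from slight difference (1) to no germination or total containment at emergence (4); intermediate activity recorded as both classes, preeminent value first.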

The subject of series [2] is echinocloa crus-galli R.S. Described as above. The class given is in vivo.
For series [3], the system named is triticum vulgare L. (wheat). Nature of the series: activity on agrarian species, soil treatment one day after sowing. The class given is in vivo. In a few lines: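 Wheat effects rated against untreated control on a 0 (no difference) to 4 (no germination or emergence fully contained) scale, with two-class scores for intermediate activity. Application was to soil one day post-sowing at rates of 1, 3, 6, 8, 10, 12 and 14 kg/ha.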

The test system of a further series is zea mais L. (corn). The series is described as above. The format is in vivo. In a few lines: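 Crop injury rated 0–4 relative to control, from no difference up to complete germination failure or arrest of emerging plants; in-between responses get both values. Product spread on soil at 1–14 kg/ha (1, 3, 6, 8, 10, 12, 14) one day post-sowing.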
For a further series, the system named is pisum sativum L. (pea). The description is as above. The class given is in vivo.
Series [4] concerns phaseolus vulgaris (bean). The description is as above. The class given is in vivo, Phaseolus vulgaris L. The gist of the method: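 Activity on bean was rated from 0 (no difference from control) to 4 (germination prevented or plants fully contained at emergence), with both classes noted for intermediate effects. Soil treatment one day after sowing, at rates of 1, 3, 6, 8, 10, 12 and 14 kg/ha.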

In series [5] the test system is avena sativa (oats). Described as above. The format is in vivo, Avena sativa L. As to conditions: 6 kg/ha.
For another series, the system named is Echinocloa crus-galli. Nature of the series: Example 1 pot test, submerged rice-field earth, granular composition. As to conditions: 3 kg/ha of active principle. The format is in vivo. Here is the method:
(§2) A series of pots were prepared filled with rice-field earth. Into these were then sown Echinocloa crus-galli and rice. The earth was then submerged by 10 cm of water and immediately thereafter were uniformly spread on the submerged soil granular compositions, some of them containing 2% of PA 234 and 98% of phosphorite, some others 5% of PA 234 and 95% of bentonite, in doses graduated from 0 - 8 kg of active principle per hectar. The test pots were kept in a conditioned environment at controlled temperature and photo-period.

In the next series the test system is rice. Described as above. As to conditions: maximum dose; doses 0 - 8 kg/ha. The format is in vivo. Here is the method:
as §2

Series [6] relates to beta vulgaris L. (sugar-beet). Nature of the series: activity on agrarian species, soil treatment one day after sowing. The class given is in vivo. From the text:
(§3) The infesting species and the agrarian species have been indicated in Table 1 by letters, as follows:
H = beta vulgaris L. (sugar-beet)
(§4) Method of evaluation of the results (of tests):
(§5) 0 = no activity and no difference with respect to the control;
(§6) 1 slight differences with respect to the control;
(§7) 3 = considerable activity with damages that definitely impair the further development of most of the small plants; an activity degree already useful for practical purposes;
(§8) 4 = maximum of activity with lack of germination or total containment of the small plants in the emerging stage.
In the case of an intermediate activity between two classes of the scale, both values are recorded with the one which corresponds to the preeminent activity preceding.
TABLE 2 reports the activity data of other compounds that fall within the class which is the object of this invention.
TABLE 3 reports data on the herbicidal activity against infesting herbs, while TABLE 4 reports data concerning the activity on useful species of agricultural cultivations. These tables employ the criterion explained previously. The product was spread on the soil one day after sowing, in quantities of 1, 3, 6, 8, 10, 12 and 14 kg/ha.

In series [7] the test system is avena sativa (oats). Described as above. The class given is in vivo, Avena sativa L.
A further series deals with solanum Lycopersicum L. The series is described as above. The class given is in vivo.
Text: as §3
M = solanum Lycopersicum L.
as §4, §5, §6, §7, §8
In the case of an intermediate activity between two classes of the scale, both values are recorded with the one which corresponds to the preeminent activity preceding. […]

As for `CC(C)N(C(=O)c1cc(Cl)cc(Cl)c1Cl)C(C)C` [PA302, 2,3,5-trichloro-N,N-di-iso-propyl-benzamide, reference compound], the “activity on A, 0-4 scale” value in series [1] (3 kg/ha) was 2; in series [1] (6 kg/ha), 2-3. For the same molecule, the “activity on P, 0-4 scale” value in the series on oryza sativa L. (rice) (in vivo) is 4-3. The “phytotoxic action on useful plants” value in the series on useful plants is “phytotoxic action of considerable intensity”. Further, the “activity on C, 0-4 scale” value worked out at 2 in the series with chenopodium album L. (1 kg/ha), 3 in the series on chenopodium album L. (3 kg/ha) and 3 in the series on chenopodium album L. (6 kg/ha). Further, the “activity on B, 0-4 scale” value is listed as 1-2 in the series with artemisia vulgaris L. (1 kg/ha), 2 with artemisia vulgaris L. (3 kg/ha) and 2 with artemisia vulgaris L. (6 kg/ha). Also, the entries for the “activity on E, 0-4 scale” value in the series with setaria glauca L. (1 kg/ha), with setaria glauca L. (3 kg/ha) and with setaria glauca L. (6 kg/ha) were 3-4, 4 and 4, respectively. For the same molecule, in the series on infesting gramineae, the herbicidal action result is reported as “very active”. Besides, the “activity on F, 0-4 scale” value is reported as 0 with vicia sativa L. (1 kg/ha), 0-1 with vicia sativa L. (3 kg/ha) and 0-1 with vicia sativa L. (6 kg/ha). Further, the “activity on D, 0-4 scale” value in [2] (3 kg/ha) and in series [2] (6 kg/ha) was 4 in each case.
On to `CCN(CC)C(=O)c1cc(Cl)cc(Cl)c1` [PA291, 3,5-dichloro-N,N-diethyl-benzamide, reference compound], for which the “activity on A, 0-4 scale” value was 2-3 in series [1] (2 kg/ha), 3 in series [1] (4 kg/ha) and 3-4 in [1] (6 kg/ha). For the same molecule, the “activity on P, 0-4 scale” value in the series on oryza sativa L. (rice) (in vivo) is given as 4. For the same molecule, the “phytotoxic action on useful plants” value in the series with useful plants is given as “phytotoxic action of considerable intensity”. For the same molecule, the “activity on C, 0-4 scale” value with chenopodium album L. (2 kg/ha) was 2-3; with chenopodium album L. (4 kg/ha) it was 3; in the series on chenopodium album L. (6 kg/ha) it was 3. Besides, the “activity on B, 0-4 scale” value was 3 with artemisia vulgaris L. (2 kg/ha), 3-4 with artemisia vulgaris L. (4 kg/ha) and 4 in the series on artemisia vulgaris L. (6 kg/ha). The “activity on E, 0-4 scale” value is 2-3 in the series with setaria glauca L. (2 kg/ha), 3 in the series on setaria glauca L. (4 kg/ha) and 4 in the series with setaria glauca L. (6 kg/ha). In addition, in the series on infesting gramineae, the herbicidal action entry is reported as “very active”. Besides, the entries for the “activity on F, 0-4 scale” value in the series with vicia sativa L. (2 kg/ha), with vicia sativa L. (4 kg/ha) and in the series on vicia sativa L. (6 kg/ha) were 2-3, 3 and 3-4, respectively. Also, in series [3] (in vivo), the “activity on N, 0-4 scale” value was found to be 4. The figures for the “activity on D, 0-4 scale” value in series [2] (2 kg/ha), in [2] (4 kg/ha) and in [2] (6 kg/ha) were 1-2, 2-3 and 4, respectively. Moreover, the “activity on O, 0-4 scale” value with zea mais L. (corn) (in vivo) was 4.
On to `CCCN(CCC)C(=O)c1cc(Cl)cc(Cl)c1` [3,5-dichloro-N,N-di-n.propyl-benzamide], for which the “phytotoxic action on useful plants” value in the series with useful plants is recorded as “phytotoxic action of considerable intensity”. In addition, the herbicidal action entry in the series with infesting gramineae is listed as “very active”.
Consider `CCC(C)N(C(=O)c1cc(Cl)cc(Cl)c1)C(C)CC` (centres unmarked) [PA234, 3,5-dichloro-N,N-di-sec.butyl-benzamide], for which the “activity on A, 0-4 scale” value is 1-2 in series [1] (2 kg/ha), 2 in series [1] (4 kg/ha) and 2-3 in [1] (6 kg/ha). For the same molecule, the “activity on L, 0-4 scale” value in the series with pisum sativum L. (pea) (2 kg/ha), with pisum sativum L. (pea) (4 kg/ha) and in the series on pisum sativum L. (pea) (6 kg/ha) was 0 throughout. The “activity on P, 0-4 scale” value with oryza sativa L. (rice) (6 kg/ha) came out at 0. For the same molecule, the “activity on I, 0-4 scale” value in series [4] (2 kg/ha), in series [4] (4 kg/ha) and in series [4] (6 kg/ha) was 0 throughout. For the same molecule, the “activity on C, 0-4 scale” value with chenopodium album L. (2 kg/ha) is recorded as 1; with chenopodium album L. (4 kg/ha) it was 2-1; in the series on chenopodium album L. (6 kg/ha), 2. For the same molecule, the “activity on G, 0-4 scale” value in the series on avena sativa (oats) [5], in the series on avena sativa (oats) [7] (2 kg/ha) and with avena sativa (oats) [7] (4 kg/ha) was 0 in each case. In the series on Echinocloa crus-galli, the “growth of Echinocloa crus-galli” value is listed as “totally inhibited”. Moreover, the damage to rice result in the series on rice is on record as “remained undamaged”. Besides, the results for the “activity on B, 0-4 scale” value with artemisia vulgaris L. (2 kg/ha), in the series on artemisia vulgaris L. (4 kg/ha) and in the series with artemisia vulgaris L. (6 kg/ha) were 0-1, 1 and 1-2, respectively. Further, the “activity on E, 0-4 scale” value in the series on setaria glauca L. (0-5 kg/ha (so in the source)) is on record as 3-2; in the series on setaria glauca L. (0.5 kg/ha), 3-2; in the series with setaria glauca L. (1 kg/ha), 3-4; in the series on setaria glauca L. (2 kg/ha) it was 4; in the series with setaria glauca L. (4 kg/ha), 4; in the series on setaria glauca L. (6 kg/ha) it was 4. For the same molecule, the “activity on H, 0-4 scale” value was 0 in series [6] (2 kg/ha), 1 in [6] (4 kg/ha) and 1 in series [6] (6 kg/ha). For the same molecule, the “activity on F, 0-4 scale” value with vicia sativa L. (2 kg/ha), in the series on vicia sativa L. (4 kg/ha) and in the series on vicia sativa L. (6 kg/ha) was 0 throughout. The “activity on N, 0-4 scale” value in series [3] (2 kg/ha), in [3] (4 kg/ha) and in [3] (6 kg/ha) was 0 in each case. Also, the “activity on D, 0-4 scale” value in series [2] (0-5 kg/ha (so in the source)) is given as 2-1; in series [2] (0.5 kg/ha), 2-1; in [2] (1 kg/ha) it was 2-3; in [2] (2 kg/ha), 4; in [2] (4 kg/ha), 4; in [2] (6 kg/ha), 4. Besides, the “activity on O, 0-4 scale” value in the series on zea mais L. (corn) (2 kg/ha), in the series with zea mais L. (corn) (4 kg/ha) and in the series with zea mais L. (corn) (6 kg/ha) was 0 each time. Also, the “activity on M, 0-4 scale” value with solanum Lycopersicum L. (2 kg/ha), in the series with solanum Lycopersicum L. (4 kg/ha) and with solanum Lycopersicum L. (6 kg/ha) was 1 in each case.
